Measurements from US7718784B2, “Switchable nucleic acids for diagnostics, screening and molecular electronics” (priority 2003, dated 2010).
[dabcylT] = deoxythymidine carrying a dabcyl quencher; {FAM} = fluorescein (FAM) label; d = 2'-deoxy (DNA); r = 2'-OH (RNA)

How the values were obtained:
NCp7 = NCp7 (Human immunodeficiency virus type 1 group M subtype B, UniProt P12493); conditions: for difference in fluorescence intensity (factor): DNA analogs of the two extreme states H and O
Description: This switch has fluorescent labels, * (e.g., FAM, 6-carboxy-fluorescein), at the 5′-end of the chain and Q (a quencher, e.g., dabcyl) near the 3′-end of the DNA segment (light font). […] In the O species, * and Q are within the Förster distance for efficient quenching. However, they are far apart in the extended hairpin form, H, and the switch emits strongly.
By altering the DNA sequence, K1 is adjusted between 0.1-0.01 (K1=[O]/[H]). […] Upon addition of NCp7 (P), the K1 equilibrium shifts to the right, and the fluorescence signal decreases. The switch is set to a null signal in the presence of a slight excess of P, and is triggered to emit when a competitor, C, sequesters the protein in the P.C complex. […] Knowledge of K1, K2, and the input concentrations, Ot, Pt, and Ct will allow estimation of K3.
This allows the equilibrium shift upon changing the sequence, or adding NCp7, to be monitored very easily. Simply put, the fluorescence of pure H and O are known, so their populations in a mixed system will be just a linear function of the measured fluorescence.

proviral DNA synthesis = conditions: cited from earlier work
NC = conditions: cited from earlier work

## FAMd(GCTATCCACCGATAGC(T-dabcyl)CCAACACGC)-UAGCGGUGGCUAGC (DNA GCTATCCACCGATAGCTCCAACACGCUAGCGGUGGCUAGC; chemistry not fully specified) [M3]
NCp7; 10 nM concentration of the switch
  equilibration with NCp7: within a minute

## FAMd(GCTAGCCACCGCTAGC(T-dabcyl)CCAACACGC)-UAGCGGUGGCUAGC [M1]
NCp7
  difference in fluorescence intensity (factor): 10

## c(F-C-dW-R-C-K)
Proviral DNA synthesis
  In vivo effects: suggest impairment of proviral DNA synthesis
NC
  competition with NC for in vitro recognition of its RNA, DNA and protein targets: competes with NC

## FAM-d(GCATGCCTCCGCATGC(T-dabcyl)CCAACACGC)-UAGCGGUGGCUAGC (DNA GCATGCCTCCGCATGCTCCAACACGCUAGCGGUGGCUAGC; sugars from the 5' end d26 r14, [dabcylT] at 17, 5' {FAM}, backbone and methylation of C not given here) [M2]
NCp7
  fluorescence of switch without and with NCp7: bright in the absence of NCp7 and dark in its presence
  difference in fluorescence intensity (factor): 10
